Experimental data taken from patent publication US20230029496A1, “AMINO ACID ALTERNATIVE CURING SYSTEM” (THE TEXAS A&M UNIVERSITY SYSTEM, priority 2019, published 2023).
Several values for one entry are separate records, joined by “and”; a condition that tells them apart may be missing. Equal values may be shown once. Marks after values point to notes of the source that are not given here.

Experiments:
[1] = system: Nitric Oxide Synthase (NOS) system; test: Residual nitrite in pre-rigor pork semimembranosus muscle immersed in L-arginine (first study); assay type: biochemical
Method: Pre-rigor pork Semimembranosus muscle samples were collected from four pre-rigor pork carcasses (n=4) harvested at the Rosenthal Meat Science and Technology Center at Texas A&M University at six separate times over a four day period (N=24). Muscle samples were treated with five concentrations of L-arginine, using water as the control treatment. Samples were either subjected to heat treatment (water bath increasing to 62° C. for 60 min) or left raw/fresh (uncooked). All treated muscle samples were analyzed for residual nitrite, and cooked samples were analyzed for nitrosylhemochromagen levels to determine curing efficiency.
Solutions were prepared according to Wu to stabilize the muscle samples for enclosed reactions within the 50 mL conical tubes. […] The NaCl was used to stabilize any reaction and the NaE was used to accelerate any cure reaction that could occur. The L-arginine was prepared separately so as to be administered in specific concentration once the five grams of meat was added to the reaction tubes by creating dilutions of millimolar concentrations at 0 mM, 2 mM, 4 mM, 8 mM, 16 mM, and 32 mM.
The procedures for determining the following sample reactions followed the procedures outlined by Wu 24 5 g muscle samples were individually placed into 50 mL conical tubes.
Residual nitrite was determined using the modified AOAC Official Method 973.31 (Nitrite Analysis in Cured Meats Procedure) and was verified by Wu with sample (plasma or serum) preparation for amino acid analysis by HPLC and determination of nitrite (UV/VIS Spectrophotometric Method). This procedure was used to determine any residual nitrite found in samples. All samples were tested three weeks after being held in a −30° C. freezer then thawed in a 0° C. cooler.
Procedure: • 1. Weigh 5 g (±0.01) of finely comminuted and thoroughly mixed sample into a 100 ml beaker. • 2. Add approximately 40 ml distilled water and heat to 80° C. Use a glass rod to break up all lumps and mix thoroughly. • 3. Transfer the heated solution to a 500 ml volumetric flask. Quantitatively wash the beaker and rod with successive portions of the hot distilled water, adding all washings to the flask (approximately 300 ml). • 4. Transfer the flask to a steam bath (˜100° C.) and shake occasionally for 2 hour. After cooling to room temperature, bring the volume to 500 ml with distilled water and remix. Filter through two Whatman No. 2 filter papers into flask and mix solution thoroughly (discard the residue). Then transfer 25 ml of the filtrate into a 50 ml volumetric flask then add 2.5 ml sulfanilamide reagent, mix thoroughly. • 5. After setting for 5 min, add 2.5 ml NED reagent, mix. Dilute to volume with distilled water, mix and set for another 15 min to let the color develop. • 6. Transfer a portion of the solution to the cuvette and read absorbance at 540 nm against a blank of 45 ml distilled water+2.5 ml sulfanilamide reagent+2.5 ml NED reagent.
• 1. Pipette 0.5 mL of plasma (or serum) to a 12×75 mm polypropylene tube. Place the tube in ice. • 2. Add 0.5 mL of […] to the tube (the tube remains in ice). • 3. Mix the tube well (using a vortex). • 4. After 2 min, add 0.25 mL of 2 M K2CO3 to the tube (the tube remains in ice). • 5.

[2] = system: Nitric Oxide Synthase (NOS) system; test: Residual nitrite in pre-rigor and post-rigor pork semimembranosus muscle immersed in L-arginine (Example 13); assay type: biochemical
Method: Pre-rigor pork semimembranosus muscle samples were collected from four pre-rigor pork carcasses (n=4) harvested at the Rosenthal Meat Science and Technology Center at Texas A&M University at three separate times over a three day period (N=12). Post-rigor pork semimembranosus muscle samples were collected from the same carcasses eighteen hours after harvesting to ensure the full onset and completion of rigor (N=12). Muscle samples were treated with the same five concentrations of L-arginine and water as the control treatment. Samples were either heated (water bath increasing from room temperature ([…]) to 62° C. for 60 min) or left raw/fresh (uncooked). The overall experiment was designed as a 6 (5 L-arginine concentrations and a control) by 4 (pork carcasses) by 2 (heating treatment (raw and cooked)) factorial replicated 3 times (collection) (N=144) for both pre-rigor and post-rigor muscle types.
Solutions were prepared by Wu's specifications to stabilize the muscle samples for enclosed reactions within 50 mL conical tubes. […] The NaCl was used to suspend and stabilize any reaction and the NaE was used to accelerate the cure reaction. The L-arginine (L-arginine monohydrochloride, Ajinomoto Inc., Raleigh, N.C.) concentrations were prepared separately for administration as a treatment once the five grams of meat were added to the reaction tubes at dilutions of 0 mM, 2 mM, 4 mM, 8 mM 16 mM, and 32 mM.
Residual nitrite was determine using the modified AOAC Official Method 973.31 (Nitrite Analysis in Cured Meats Procedure) and was verified by Wu with sample (plasma or serum) preparation for amino acid analysis by HPLC and determination of nitrite (UV/VIS Spectrophotometric Method). This method was used to best determine any residual nitrite found in samples to compensate for both pre-rigor and post rigor effects on detecting residual nitrite. All samples were tested one week later after being held in a −30° C. freezer then thawed in a 0° C. cooler.

[3] = 2 mM L-arginine, cooked supernatant
[4] = 4 mM L-arginine, cooked supernatant
[5] = 8 mM L-arginine, cooked supernatant
[6] = 16 mM L-arginine, cooked pellet
[7] = 16 mM L-arginine, cooked supernatant
[8] = 32 mM L-arginine, cooked pellet
[9] = 32 mM L-arginine, cooked supernatant
[10] = 2 mM L-arginine, raw supernatant, stored one week at -30° C.
[11] = 4 mM L-arginine, raw supernatant, stored one week at -30° C.
[12] = 8 mM L-arginine, raw supernatant, stored one week at -30° C.
[13] = 16 mM L-arginine, raw supernatant, stored one week at -30° C.
[14] = 32 mM L-arginine, raw supernatant, stored one week at -30° C.

Question: Which results are given for N=C(N)NCCC[C@H](N)C(=O)O [L-arginine]?
Answer: Residual Nitrite ([1]; 2 mM L-arginine, cooked pellet): 10.46 ppm and 10.46^a ppm; Residual Nitrite [1, 3]: 5.81 ppm and 5.81^ab ppm; Residual Nitrite ([1]; 2 mM L-arginine, raw supernatant, stored 3 weeks at -30° C.): 4.53^b ppm; Residual Nitrite ([1]; 4 mM L-arginine, cooked pellet): 9.35 ppm and 9.35^a ppm; Residual Nitrite [1, 4]: 8.79 ppm and 8.79^a ppm; Residual Nitrite ([1]; 4 mM L-arginine, raw supernatant, stored 3 weeks at -30° C.): 8.00 ppm and 8.00^ab ppm; Residual Nitrite ([1]; 8 mM L-arginine, cooked pellet): 11.22 ppm and 11.22^a ppm; Residual Nitrite [1, 5]: 5.85 ppm and 5.85^ab ppm; Residual Nitrite ([1]; 8 mM L-arginine, raw supernatant, stored 3 weeks at -30° C.): 9.66 ppm and 9.66^ab ppm; Residual Nitrite [1, 6]: 14.06 ppm and 14.06^a ppm; Residual Nitrite [1, 7]: 3.19 ppm and 3.19^ab ppm; Residual Nitrite ([1]; 16 mM L-arginine, raw supernatant, stored 3 weeks at -30° C.): 9.23 ppm and 9.23^ab ppm; Residual Nitrite [1, 8]: 15.69 ppm and 15.69^a ppm; Residual Nitrite [1, 9]: 7.86 ppm and 7.86^ab ppm; Residual Nitrite ([1]; 32 mM L-arginine, raw supernatant, stored 3 weeks at -30° C.): 14.34 ppm and 14.34^a ppm; Residual Post rigor Nitrite ([2]; 2 mM L-arginine, cooked pellet): 19.36^b ppm; Residual Pre-rigor Nitrite ([2]; 2 mM L-arginine, cooked pellet): 22.87^a ppm; Residual Post rigor Nitrite [2, 3]: 61.12 ppm and 61.12^a ppm; Residual Pre-rigor Nitrite [2, 3]: 50.72 ppm and 50.72^a ppm; Residual Post rigor Nitrite [2, 10]: 9.42^a ppm; Residual Pre-rigor Nitrite [2, 10]: 15.26^a ppm; Residual Post rigor Nitrite ([2]; 4 mM L-arginine, cooked pellet): 23.72 ppm and 23.72^ab ppm; Residual Pre-rigor Nitrite ([2]; 4 mM L-arginine, cooked pellet): 22.64^a ppm; Residual Post rigor Nitrite [2, 4]: 61.93 ppm and 61.93^a ppm; Residual Pre-rigor Nitrite [2, 4]: 47.72 ppm and 47.72^ab ppm; Residual Post rigor Nitrite [2, 11]: 14.50^a ppm; Residual Pre-rigor Nitrite [2, 11]: 34.93^a ppm; Residual Post rigor Nitrite ([2]; 8 mM L-arginine, cooked pellet): 22.06 ppm and 22.06^ab ppm; Residual Pre-rigor Nitrite ([2]; 8 mM L-arginine, cooked pellet): 19.70^a ppm; Residual Post rigor Nitrite [2, 5]: 52.69 ppm and 52.69^ab ppm; Residual Pre-rigor Nitrite [2, 5]: 38.63 ppm and 38.63^ab ppm; Residual Post rigor Nitrite [2, 12]: 21.83^a ppm; Residual Pre-rigor Nitrite [2, 12]: 44.58^a ppm; Residual Post rigor Nitrite [2, 6]: 22.15 ppm and 22.15^ab ppm; Residual Pre-rigor Nitrite [2, 6]: 31.94^a ppm; Residual Post rigor Nitrite [2, 7]: 53.74 ppm and 53.74^a ppm; Residual Pre-rigor Nitrite [2, 7]: 24.62 ppm and 24.62^ab ppm; Residual Post rigor Nitrite [2, 13]: 23.54^a ppm; Residual Pre-rigor Nitrite [2, 13]: 11.92^a ppm; Residual Post rigor Nitrite [2, 8]: 32.87 ppm and 32.87^a ppm; Residual Pre-rigor Nitrite [2, 8]: 40.14 ppm and 40.14^a ppm; Residual Post rigor Nitrite [2, 9]: 52.90 ppm and 52.90^ab ppm; Residual Pre-rigor Nitrite [2, 9]: 20.08 ppm and 20.08^ab ppm; Residual Post rigor Nitrite [2, 14]: 16.51^a ppm; Residual Pre-rigor Nitrite [2, 14]: 22.09^a ppm; Residual Nitrite ([2]; pre-rigor raw supernatant, range over all concentrations of L-arginine): 11.92-44.58 ppm; residual nitrite levels ([2]; raw post rigor supernatant, range over all concentrations of L-arginine): 9.06-23.54 ppm
